Results as given in ChEMBL document CHEMBL1138648, “Synthesis of new N-(2-(trifluoromethyl)pyridin-4-yl)anthranilic acid derivatives and their evaluation as anticancer agents” (2004).

Tests used:
Format in all cases: functional
[1] = system: SF-268; test: Growth inhibitory activity against CNS cancer SF-268 cell line was determined; conditions: Homo sapiens
[2] = system: TK-10; test: Growth inhibitory activity against Renal cancer TK-10 cell line was determined; conditions: Homo sapiens
[3] = system: CCRF-CEM; test: Growth inhibitory activity against Leukemia CCRF-CEM cell line was determined; conditions: Homo sapiens
[4] = system: SK-MEL-28; test: Growth inhibitory activity against Melanoma SK-MEL-28 cell line was determined; conditions: Homo sapiens
[5] = system: HOP-92; test: Growth inhibitory activity against non small cell lung cancer HOP-92 cell line was determined; conditions: Homo sapiens
[6] = system: HCC 2998; test: Growth inhibitory activity against colon cancer HCC2998 cell line was determined; conditions: Homo sapiens
[7] = system: COLO 205; test: Growth inhibitory activity against colon cancer COLO 205 cell line was determined; conditions: Homo sapiens
[8] = system: SK-OV-3; test: Growth inhibitory activity against Ovarian cancer SK-OV-3 cell line was determined; conditions: Homo sapiens
[9] = system: NCI-H226; test: Growth inhibitory activity against non small cell lung cancer NCI-H226 cell line was determined; conditions: Homo sapiens
[10] = system: NCI-H460; test: Growth inhibitory activity against non small cell lung cancer H460 cell line was determined; conditions: Homo sapiens
[11] = system: NCI-H460; test: In vitro percent of proliferation of vehicle treated NCI-H460 human lung cell lines was determined at 0.0010 M concentration
[12] = system: K562; test: Growth inhibitory activity against Leukemia K-562 cell line was determined; conditions: Homo sapiens
[13] = system: KM12; test: Growth inhibitory activity against colon cancer KM12 cell line was determined; conditions: Homo sapiens
[14] = system: MDA-MB-435; test: Growth inhibitory activity against Breast cancer MDA-MB-435 cell line was determined; conditions: Homo sapiens
[15] = system: RXF 393; test: Growth inhibitory activity against Renal cancer RXF 393 cell line was determined; conditions: Homo sapiens
[16] = system: NCI-H23; test: Growth inhibitory activity against non small cell lung cancer NCI-H23 cell line was determined; conditions: Homo sapiens
[17] = system: 786-0; test: Growth inhibitory activity against Renal cancer 786-0 cell line was determined; conditions: Homo sapiens
[18] = system: OVCAR-5; test: Growth inhibitory activity against Ovarian cancer OVCAR-5 cell line was determined; conditions: Homo sapiens
[19] = system: RPMI-8226; test: Growth inhibitory activity against Leukemia RPMI-8226 cell line was determined; conditions: Homo sapiens
[20] = system: HOP-62; test: Growth inhibitory activity against non small cell lung cancer HOP-62 cell line was determined; conditions: Homo sapiens
[21] = system: OVCAR-8; test: Growth inhibitory activity against Ovarian cancer OVCAR-8 cell line was determined; conditions: Homo sapiens
[22] = system: A549; test: Growth inhibitory activity against non small cell lung cancer A549/ATCC cells; conditions: Homo sapiens
[23] = system: SNB-19; test: Growth inhibitory activity against CNS cancer SNB-19 cell line was determined; conditions: Homo sapiens
[24] = system: MCF7; test: Growth inhibitory activity against Breast cancer MCF-7 cell line was determined; conditions: Homo sapiens
[25] = system: NCI-H522; test: Growth inhibitory activity against non small cell lung cancer H522 cell line was determined; conditions: Homo sapiens
[26] = system: OVCAR-4; test: Growth inhibitory activity against Ovarian cancer OVCAR-4 cell line was determined; conditions: Homo sapiens
[27] = system: MDA-MB-231; test: Growth inhibitory activity against Breast cancer MDA-MB-231/ATCC cell line was determined; conditions: Homo sapiens
[28] = system: DU-145; test: Growth inhibitory activity against Prostate cancer DU-145 cell line was determined; conditions: Homo sapiens
[29] = system: OVCAR-3; test: Growth inhibitory activity against Ovarian cancer OVCAR-3 cell line was determined; conditions: Homo sapiens
[30] = system: SK-MEL-5; test: Growth inhibitory activity against Melanoma SK-MEL-5 cell line was determined; conditions: Homo sapiens
[31] = system: HL-60; test: Growth inhibitory activity against Leukemia HL-60(TB) cell line was determined; conditions: Homo sapiens
[32] = system: M14; test: Growth inhibitory activity against Melanoma M14 cell line was determined; conditions: Homo sapiens
[33] = system: MCF7; test: In vitro percent of proliferation of vehicle treated MCF-7 human breast cell lines was determined at 0.0010 M concentration
[34] = system: SR; test: Growth inhibitory activity against Leukemia SR cell line was determined; conditions: Homo sapiens
[35] = system: HCT-15; test: Growth inhibitory activity against colon cancer HCT-15 cell line was determined; conditions: Homo sapiens
[36] = system: HCT-116; test: Growth inhibitory activity against colon cancer HCT116 cell line was determined; conditions: Homo sapiens
[37] = system: SW-620; test: Growth inhibitory activity against colon cancer SW-620 cell line was determined; conditions: Homo sapiens
[38] = system: NCI-H322M; test: Growth inhibitory activity against non small cell lung cancer NCI-H322M cell line was determined; conditions: Homo sapiens
[39] = system: SF-539; test: Growth inhibitory activity against CNS cancer SF-539 cell line was determined; conditions: Homo sapiens
[40] = system: SF-268; test: In vitro percent of proliferation of vehicle treated SF-268 human CNS cell lines was determined at 0.0010 M concentration
[41] = system: SF-295; test: Growth inhibitory activity against CNS cancer SF-295 cell line was determined; conditions: Homo sapiens
[42] = system: A498; test: Growth inhibitory activity against Renal cancer A498 cell line was determined; conditions: Homo sapiens
[43] = system: CAKI-1; test: Growth inhibitory activity against Renal cancer CAKI-1 cell line was determined; conditions: Homo sapiens
[44] = system: UACC-62; test: Growth inhibitory activity against Melanoma UACC-62 cell line was determined; conditions: Homo sapiens
[45] = system: MOLT-4; test: Growth inhibitory activity against Leukemia MOLT-4 cell line was determined; conditions: Homo sapiens
[46] = system: HT-29; test: Growth inhibitory activity against colon cancer HT-29 cell line was determined; conditions: Homo sapiens
[47] = system: UACC-257; test: Growth inhibitory activity against Melanoma UACC-257 cell line was determined; conditions: Homo sapiens
[48] = system: U-251; test: Growth inhibitory activity against CNS cancer U251 cell line was determined; conditions: Homo sapiens
[49] = system: NCI/ADR-RES; test: Growth inhibitory activity against Breast cancer NCI/ADR-RES cell line was determined; conditions: Homo sapiens
[50] = system: LOX IMVI; test: Growth inhibitory activity against Melanoma LOX IMVI cell line; conditions: Homo sapiens
[51] = system: EKVX; test: Growth inhibitory activity against non small cell lung cancer EKVX cell line was determined; conditions: Homo sapiens
[52] = system: SN12C; test: Growth inhibitory activity against Renal cancer SN12C cell line was determined; conditions: Homo sapiens
[53] = system: ACHN; test: Growth inhibitory activity against Renal cancer ACHN cell line was determined; conditions: Homo sapiens
[54] = system: PC-3; test: Growth inhibitory activity against Prostate cancer PC-3 cell line was determined; conditions: Homo sapiens
[55] = system: BT-549; test: Growth inhibitory activity against Breast cancer BT-549 cell line was determined; conditions: Homo sapiens
[56] = system: Hs-578T; test: Growth inhibitory activity against Breast cancer HS 578T cell line was determined; conditions: Homo sapiens
[57] = system: CAKI-1; test: Growth inhibitory activity against Renal cancer CAKI-1 cell line […]; conditions: Homo sapiens
[58] = system: SNB-75; test: Growth inhibitory activity against CNS cancer SNB-75 cell line was determined; conditions: Homo sapiens

## O=C(Oc1cccnc1)c1ccccc1Nc1ccnc(C(F)(F)F)c1
[1]
  GI50: 60 nM
[2]
  GI50: 270 nM
[3]
  GI50: 30 nM
[4]
  GI50: 660 nM
[5]
  GI50: 480 nM
[6]
  GI50: 360 nM
[7]
  GI50: 140 nM
[8]
  GI50: 250 nM
[9]
  GI50: 510 nM
[10]
  GI50: 340 nM
[11]
  Proliferation: 22%
[12]
  GI50: 40 nM
[13]
  GI50: 310 nM
[14]
  GI50: 60 nM
[15]
  GI50: 340 nM
[16]
  GI50: 60 nM
[17]
  GI50: 270 nM
[18]
  GI50: 490 nM
[19]
  GI50: 50 nM
[20]
  GI50: 10 nM
[21]
  GI50: 690 nM
[22]
  GI50: 720 nM
[23]
  GI50: 330 nM
[24]
  GI50: 160 nM
[25]
  GI50: 410 nM
[26]
  GI50: 460 nM
[27]
  GI50: 390 nM
[28]
  GI50: 220 nM
[29]
  GI50: 140 nM
[30]
  GI50: 170 nM
[31]
  GI50: 44000 nM
[32]
  GI50: 30 nM
[33]
  Proliferation: 62%
[34]
  GI50: 10 nM
[35]
  GI50: 290 nM
[36]
  GI50: 30 nM
[37]
  GI50: 60 nM
[38]
  GI50: 2900 nM
[39]
  GI50: 10 nM
[40]
  Proliferation: 75%
[41]
  GI50: 310 nM
[42]
  GI50: 520 nM
[43]
  GI50: 50 nM
[44]
  GI50: 350 nM
[45]
  GI50: 30 nM
[46]
  GI50: 50 nM
[47]
  GI50: 55000 nM
[48]
  GI50: 520 nM
[49]
  GI50: 80 nM
[50]
  GI50: 50 nM
[51]
  GI50: 390 nM
[52]
  GI50: 410 nM
[53]
  GI50: 260 nM
[54]
  GI50: 420 nM
[55]
  GI50: 10 nM
[56]
  GI50: 570 nM

## CCOC(=O)CNC(=O)c1ccccc1Nc1ccnc(C(F)(F)F)c1
[1]
  GI50: 20000 nM
[2]
  GI50: 37000 nM
[3]
  GI50: 2200 nM
[4]
  GI50: 23000 nM
[5]
  GI50: 50 nM
[6]
  GI50: 71000 nM
[7]
  GI50: 19000 nM
[8]
  GI50: 29000 nM
[9]
  GI50: 100000 nM
[10]
  GI50: 20000 nM
[11]
  Proliferation: 19%
[12]
  GI50: 18000 nM
[13]
  GI50: 27000 nM
[14]
  GI50: 39000 nM
[15]
  GI50: 19000 nM
[16]
  GI50: 22000 nM
[17]
  GI50: 29000 nM
[18]
  GI50: 26000 nM
[19]
  GI50: 11000 nM
[20]
  GI50: 21000 nM
[21]
  GI50: 26000 nM
[22]
  GI50: 29000 nM
[23]
  GI50: 30000 nM
[24]
  GI50: 25000 nM
[25]
  GI50: 22000 nM
[26]
  GI50: 35000 nM
[27]
  GI50: 24000 nM
[28]
  GI50: 27000 nM
[29]
  GI50: 24000 nM
[30]
  GI50: 10000 nM
[31]
  GI50: 33000 nM
[32]
  GI50: 25000 nM
[33]
  Proliferation: 60%
[34]
  GI50: 17000 nM
[35]
  GI50: 29000 nM
[36]
  GI50: 21000 nM
[37]
  GI50: 20000 nM
[38]
  GI50: 32000 nM
[39]
  GI50: 28000 nM
[40]
  Proliferation: 59%
[41]
  GI50: 71000 nM
[42]
  GI50: 64000 nM
[43]
  GI50: 16000 nM
[44]
  GI50: 17000 nM
[45]
  GI50: 16000 nM
[46]
  GI50: 29000 nM
[47]
  GI50: 69000 nM
[48]
  GI50: 18000 nM
[49]
  GI50: 51000 nM
[50]
  GI50: 17000 nM
[51]
  GI50: 31000 nM
[52]
  GI50: 24000 nM
[53]
  GI50: 34000 nM
[54]
  GI50: 22000 nM
[55]
  GI50: 36000 nM
[56]
  GI50: 46000 nM

## O=C(Oc1ccccc1Cl)c1ccccc1Nc1ccnc(C(F)(F)F)c1
[1]
  GI50: 220 nM
[2]
  GI50: 650 nM
[3]
  GI50: 30 nM
[5]
  GI50: 20 nM
[6]
  GI50: 2200 nM
[8]
  GI50: 8000 nM
[9]
  GI50: 290 nM
[10]
  GI50: 660 nM
[11]
  Proliferation: 3%
[12]
  GI50: 50 nM
[13]
  GI50: 330 nM
[14]
  GI50: 130 nM
[16]
  GI50: 250 nM
[17]
  GI50: 250 nM
[18]
  GI50: 460 nM
[57]
  GI50: 290 nM
[19]
  GI50: 240 nM
[20]
  GI50: 2700 nM
[58]
  GI50: 680 nM
[21]
  GI50: 240 nM
[22]
  GI50: 730 nM
[23]
  GI50: 7400 nM
[24]
  GI50: 280 nM
[25]
  GI50: 510 nM
[26]
  GI50: 260 nM
[27]
  GI50: 320 nM
[28]
  GI50: 4300 nM
[29]
  GI50: 220 nM
[30]
  GI50: 260 nM
[31]
  GI50: 470 nM
[32]
  GI50: 30 nM
[33]
  Proliferation: 6%
[34]
  GI50: 30 nM
[35]
  GI50: 220 nM
[36]
  GI50: 1800 nM
[37]
  GI50: 360 nM
[38]
  GI50: 4800 nM
[39]
  GI50: 580 nM
[40]
  Proliferation: 17%
[41]
  GI50: 240 nM
[42]
  GI50: 3900 nM
[44]
  GI50: 310 nM
[45]
  GI50: 20 nM
[46]
  GI50: 390 nM
[48]
  GI50: 270 nM
[49]
  GI50: 320 nM
[50]
  GI50: 20 nM
[51]
  GI50: 8600 nM
[52]
  GI50: 330 nM
[53]
  GI50: 280 nM
[54]
  GI50: 300 nM
[55]
  GI50: 340 nM
[56]
  GI50: 320 nM
